{"source": "ChEMBL document CHEMBL1143305", "about": "“SAR and biological evaluation of analogues of a small molecule histone deacetylase inhibitor N-(2-aminophenyl)-4-((4-(pyridin-3-yl)pyrimidin-2-ylamino)methyl)benzamide (MGCD0103)” (Bioorg Med Chem Lett, 2009)", "key": {"[1]": {"biological_target": "T1, Protein deacetylase HDAC6 (Homo sapiens, UniProt Q9UBN7)", "T1 sequence (Q9UBN7 whole entry)": "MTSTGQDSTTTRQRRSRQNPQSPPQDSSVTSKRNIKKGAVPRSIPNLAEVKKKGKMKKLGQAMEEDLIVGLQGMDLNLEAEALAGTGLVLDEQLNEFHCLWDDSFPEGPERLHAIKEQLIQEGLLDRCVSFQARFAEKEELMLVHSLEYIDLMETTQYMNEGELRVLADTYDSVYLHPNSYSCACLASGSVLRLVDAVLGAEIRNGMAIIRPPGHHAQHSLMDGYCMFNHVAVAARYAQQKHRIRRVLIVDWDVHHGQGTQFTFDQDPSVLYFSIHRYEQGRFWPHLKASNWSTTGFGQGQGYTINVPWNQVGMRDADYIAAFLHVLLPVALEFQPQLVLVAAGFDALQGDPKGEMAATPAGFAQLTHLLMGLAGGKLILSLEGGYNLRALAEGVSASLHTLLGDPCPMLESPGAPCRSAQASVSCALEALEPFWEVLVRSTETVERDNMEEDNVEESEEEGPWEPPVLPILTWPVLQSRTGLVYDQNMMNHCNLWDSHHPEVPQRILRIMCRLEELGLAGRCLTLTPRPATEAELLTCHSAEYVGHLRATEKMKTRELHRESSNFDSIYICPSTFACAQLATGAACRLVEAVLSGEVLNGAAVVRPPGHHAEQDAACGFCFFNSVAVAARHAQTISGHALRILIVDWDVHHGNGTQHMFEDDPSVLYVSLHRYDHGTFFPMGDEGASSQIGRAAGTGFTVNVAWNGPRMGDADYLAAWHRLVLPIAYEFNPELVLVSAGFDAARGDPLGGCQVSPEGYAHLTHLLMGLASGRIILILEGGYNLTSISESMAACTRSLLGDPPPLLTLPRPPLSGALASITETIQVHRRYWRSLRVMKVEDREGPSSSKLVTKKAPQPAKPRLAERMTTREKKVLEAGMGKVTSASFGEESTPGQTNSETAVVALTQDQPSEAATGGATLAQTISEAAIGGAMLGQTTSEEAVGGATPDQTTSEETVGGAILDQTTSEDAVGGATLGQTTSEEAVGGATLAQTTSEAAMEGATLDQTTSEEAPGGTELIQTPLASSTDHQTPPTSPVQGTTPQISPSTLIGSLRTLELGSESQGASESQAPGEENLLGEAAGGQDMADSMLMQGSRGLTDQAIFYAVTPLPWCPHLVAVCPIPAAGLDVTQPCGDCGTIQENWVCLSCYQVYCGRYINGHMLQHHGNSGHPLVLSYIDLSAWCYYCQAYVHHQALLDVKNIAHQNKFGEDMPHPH", "test": "Inhibition of HDAC6"}, "[2]": {"test": "Oral bioavailability in Sprague-Dawley rat at 5 mg/kg up to 6 hrs", "assay_type": "ADME, organism-based", "settings": "in vivo"}, "[3]": {"test": "Tmax in Sprague-Dawley rat at 5 mg/kg, po up to 6 hrs", "assay_type": "ADME, organism-based", "parameters": "dose 5 mg/kg, route oral", "settings": "in vivo"}}, "data": [{"smiles": "Nc1ccccc1NC(=O)c1ccc(CNc2nccc(-c3ccn[nH]3)n2)cc1", "values": [{"measurement": "IC50", "setting": "[1]", "result": "> 20", "unit": "µM"}, {"measurement": "bioavailability", "setting": "[2]", "result": 16, "unit": "%"}, {"measurement": "Tmax", "setting": "[3]", "result": 30, "unit": "min"}]}]}
